Converted amounts (≈) assume the structure as drawn. Structures can show the parent of a compound that is named as a salt. Where two headings read alike, the source gives them in different places.
What was measured:
[1] = test system: Guinea-pig ileum strips, histamine-induced contraction; assay: Anti-histamine activity in "vitro": histamine-induced spasms of guinea-pig ileum strips; format: cell-based; details: for IC50: Cavia porcellus, 5 min
Description: The histamine--(0.5 mg/liter) induced spasms are recorded Kymographically with an isotonic lever giving a 5-fold magnification.

[2] = test system: histamine paw oedema in guinea pigs; assay: Histamine paw oedema in guinea pigs; format: in vivo, guinea pig; details: for minimal effective dose: Cavia porcellus, read-out: Anaphylaxis in guinea pigs oral effective dose in mg/kg: Histamine oedema
How it was run: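 Guinea pigs of 400–500 g were dosed orally with compound or saline 24 h after subplantar ovalbumin antiserum sensitisation in the left hind paw. Two hours after dosing, histamine 50 μg was injected subplantar into the right hind paw to induce oedema.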

[3] = test system: Guinea pigs sensitized to ovalbumin (anaphylactic shock); assay: Anaphylaxis in guinea pigs: protection against death after ovalbumin challenge (survival); format: in vivo, guinea pig; details: for ED50: Cavia porcellus, read-out: Anaphylaxis in guinea pigs oral effective dose in mg/kg: Survival
How it was run: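 Guinea pigs (400–500 g) sensitized by subplantar ovalbumin antiserum, dosed orally 24 h later. ED50 is the oral dose protecting 50% of animals from death.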

[4] = Table I-b, histamine 0.5 mg/liter, 5 minutes incubation, concentration giving significant inhibition (50%) of the contraction, read-out: Histamine in "vitro" (ileum) effective conc.
[5] = Table I-b, oral dose giving paw reaction below 10 units 10 minutes after 50 μg histamine s.p., 2 hours after dosing
[6] = Table I-b, estimated ED50, oral, protection against death after i.v. 0.6 mg ovalbumin
[7] = Table I-e, histamine 0.5 mg/liter, 5 minutes incubation, concentration giving significant inhibition (50%) of the contraction, read-out: Histamine in "vitro" (ileum) effective dose
[8] = Table I-e, oral dose giving paw reaction below 10 units 10 minutes after 50 μg histamine s.p., 2 hours after dosing
[9] = Table I-e, estimated ED50, oral, protection against death after i.v. 0.6 mg ovalbumin

SMILES	IC50 [1, 4] [mg/L]	minimal effective dose [2, 5] [mg/kg]	ED50 [3, 6] [mg/kg]	further results
Clc1ccc(C(c2ccccc2)N2CCN(CCCn3cnc4ccccc43)CC2)cc1 (stereo not drawn) [I-b: M=H, R1=H, (CH2)3, R6=4-Cl, R7=H, 1-[3-{4-[(4-chlorophenyl)phenylmethyl]-1-piperazinyl}propyl]-1H-benzimidazole]	0.01 (≈ 0.0225 µM)	0.31	0.08	–
Fc1ccc(C(c2ccc(F)cc2)N2CCN(CCCn3cnc4ccccc43)CC2)cc1.O [I-b: M=H, R1=H, (CH2)3, R6=4-F, R7=4-F, 1-[3-{4-[bis(4-fluorophenyl)methyl]-1-piperazinyl}propyl]-1H-benzimidazole hydrate]	0.02	0.31	0.16	–
Fc1ccc(C(c2ccccc2)N2CCN(CCCn3cnc4ccccc43)CC2)cc1 (stereo not drawn) [I-b: M=H, R1=H, (CH2)3, R6=4-F, R7=H]	0.005 (≈ 0.0117 µM)	0.31	0.31	–
c1ccc(C(c2ccccc2)N2CCN(CCCn3cnc4ccccc43)CC2)cc1 [I-b: M=H, R1=H, (CH2)3, R6=H, R7=H]	0.0025 (≈ 0.00609 µM)	0.16	0.08	–
CC(C)O.Cl.Cl.Cl.Cl.Cl.Cl.Clc1cccc(C(c2ccccc2)N2CCN(CCCn3cnc4ccccc43)CC2)c1.Clc1cccc(C(c2ccccc2)N2CCN(CCCn3cnc4ccccc43)CC2)c1.O.O (stereo not drawn) [I-b: M=H, R1=H, (CH2)4, R6=3-Cl, R7=H, 1-[3-{4-[(3-chlorophenyl)phenylmethyl]-1-piperazinyl}propyl]-1H-benzimidazole trihydrochloride.hydrate.hemi-2-propanolate]	–	–	–	Histamine in "vitro" (ileum) effective conc. ([1]; Table I-b, histamine 0.5 mg/liter, 5 minutes incubation, concentration giving significant inhibition (50%) of the contraction): 0.01 mg/L; Anaphylaxis in guinea pigs oral effective dose in mg/kg: Histamine oedema [2, 5]: 1.25 mg/kg; Anaphylaxis in guinea pigs oral effective dose in mg/kg: Survival [3, 6]: 1.25 mg/kg
Fc1ccc(C(c2ccc(F)cc2)N2CCN(CCCCn3cnc4ccccc43)CC2)cc1 [I-b: M=H, R1=H, (CH2)4, R6=4-F, R7=4-F, 1-[4-{4-[bis(4-fluorophenyl)methyl]-1-piperazinyl}butyl]-1H-benzimidazole]	0.005 (≈ 0.0109 µM)	0.31	0.31	–
Fc1ccc(C(c2ccccc2)N2CCN(CCCCn3cnc4ccccc43)CC2)cc1 (stereo not drawn) [I-b: M=H, R1=H, (CH2)4, R6=4-F, R7=H, 1-[4-{4-[(4-fluorophenyl)phenylmethyl]-1-piperazinyl}butyl]-1H-benzimidazole]	0.005 (≈ 0.0113 µM)	0.16	0.08	–
c1ccc(C(c2ccccc2)N2CCN(CCCCn3cnc4ccccc43)CC2)cc1 [I-b: M=H, R1=H, (CH2)4, R6=H, R7=H, 1-[4-[4-(diphenylmethyl)-1-piperazinyl]butyl}-1H-benzimidazole]	0.0025 (≈ 0.00589 µM)	0.16	0.16	–
Sc1nc2ccccc2n1CCCN1CCN(C(c2ccccc2)c2ccccc2)CC1 [I-b: M=HS, R1=H, (CH2)3, R6=H, R7=H, 1-{3-[4-(diphenylmethyl)-1-piperazinyl]propyl}-1H-benzimidazole-2-thiol]	0.01 (≈ 0.0226 µM)	1.25	0.63	–
Cl.Cl.O=c1oc2ccccc2n1CCCN1CCN(C(c2ccccc2)c2ccccc2)CC1 [I-c: Y=O, 3-{3-[4-(diphenylmethyl)-1-piperazinyl]propyl}-2(3H)benzoxazolone dihydrochloride]	–	–	–	IC50 ([1]; read-out: Histamine in "vitro" (ileum) effective conc. in mg/l): 0.01 mg/L; minimal effective dose ([2]; po, 2 h): 2.5 mg/kg; ED50 ([3]; po): 0.63 mg/kg
O=c1sc2ccccc2n1CCCN1CCN(C(c2ccccc2)c2ccccc2)CC1 [I-c: Y=S, 3-{3-[4-(diphenylmethyl)-1-piperazinyl]propyl}-2(3H)-benzothiazolone dihydrochloride.hemihydrate]	–	–	–	IC50 ([1]; Table I-c, histamine 0.5 mg/liter, 5 minutes incubation, concentration giving significant inhibition (50%) of the contraction, read-out: Histamine in "vitro" (ileum) effective conc.): 0.01 mg/L; minimal effective dose ([2]; Table I-c, oral dose giving paw reaction below 10 units 10 minutes after 50 μg histamine s.p., 2 hours after dosing): 1.25 mg/kg; ED50 ([3]; Table I-c, estimated ED50, oral, protection against death after i.v. 0.6 mg ovalbumin): 1.25 mg/kg
O=c1[nH]c2ccccc2n1CCCN1CCN(C(c2ccc(Cl)cc2)c2cccnc2)CC1 (stereo not drawn) [I-e: Ar1=4-Cl-C6H4, Ar2=3-pyridinyl, 1-[3-{4-[(4-chlorophenyl)(3-pyridinyl)methyl]-1-piperazinyl}propyl]-1,3-dihydro-2H-benzimidazol-2-one]	–	–	–	IC50 [1, 7]: 0.08 mg/L (≈ 0.173 µM); minimal effective dose [2, 8]: 2.5 mg/kg; ED50 [3, 9]: 1.25 mg/kg
O=c1[nH]c2ccccc2n1CCCN1CCN(C(c2ccc(F)cc2)c2cccnc2)CC1 (stereo not drawn) [I-e: Ar1=4-FC6H4, Ar2=3-pyridinyl, 1-[3-{4-[(4-fluorophenyl)(3-pyridinyl)methyl]-1-piperazinyl}propyl]-1,3-dihydro-2H-benzimidazol-2-one]	–	–	–	IC50 [1, 7]: 0.08 mg/L (≈ 0.18 µM); minimal effective dose [2, 8]: < 2.5 mg/kg; ED50 [3, 9]: < 2.5 mg/kg
CCOC(=O)CCn1c(=O)n(CCCN2CCN(C(c3ccccc3)c3ccccc3)CC2)c2ccccc21 [ethyl 3-{3-[4-(diphenylmethyl)-1-piperazinyl]propyl}-2,3-dihydro-2-oxo-1H-benzimidazole-1-propanoate dihydrochloride. dihydrate]	–	–	–	IC50 ([1]; Table I-a, histamine 0.5 mg/liter, 5 minutes incubation, concentration giving significant inhibition (50%) of the contraction, read-out: Histamine in "vitro" (ileum) effective conc.): 0.005 mg/L; minimal effective dose ([2]; Table I-a, oral dose giving paw reaction below 10 units 10 minutes after 50 μg histamine s.p., 2 hours after dosing): 0.63 mg/kg; ED50 ([3]; Table I-a, estimated ED50, oral, protection against death after i.v. 0.6 mg ovalbumin): 0.63 mg/kg
COC(=O)Nc1nc2ccccc2n1CCCN1CCN(C(c2ccccc2)c2ccccc2)CC1 [methyl [1-{3-[4-(diphenylmethyl)-1-piperazinyl]propyl}-1H-benzimidazol-2-yl]carbamate]	≤ 0.16	2.5	2.5	–

— US4250176A, “Piperazine derivatives” (priority 1979, dated 1981)
